# Assay results published in paper PMC6792352, “Limited Chemical Structural Diversity Found to Modulate Thyroid Hormone Receptor in the Tox21 Chemical Library” (Environmental Health Perspectives, 2019).
# Where a name gives a salt, the structure may show the parent alone.
# Experiment: in vitro
# Settings: rat, gh3-tre-luc cells, AC50 (uM) modified / 1000
row,Compound,CC50 at 24 h [µM]
1,CC(C)SCc1ccco1 [Furfuryl isopropyl sulfide],> 40
2,COc1cc(OC)nc(Oc2cccc(Oc3nc(OC)cc(OC)n3)c2C(=O)O)n1 [Bispyribac-sodium],> 90
3,CC1(C)[C@@H]2CC[C@@]1(C)C(=O)C2 [D-Camphor],> 90
4,CCNC(=O)NCCCOc1cccc(CN2CCCCC2)c1 [Dalcotidine],> 50
5,CC(C)OC(=O)C(C)(C)Oc1ccc(C(=O)c2ccc(Cl)cc2)cc1 [Fenofibrate],78.6
6,C[C@@]1(c2ccc(Oc3ccccc3)cc2)OC(=O)N(Nc2ccccc2)C1=O (racemic) [Famoxadone],39
7,"O=[N+]([O-])c1cccc(Cl)c1Cl [2,3-Dichloronitrobenzene]",> 90
8,O=C(O)c1cccc(-c2noc(-c3ccccc3F)n2)c1 [Ataluren],> 50
9,"CC(C)c1ccc(C(C)C)cc1 [1,4-Diisopropylbenzene]",> 90
10,C[C@@H]1C[C@H]2[C@@H]3C[C@H](F)C4=CC(=O)C=C[C@]4(C)[C@@]3(Cl)[C@@H](O)C[C@]2(C)[C@H]1C(=O)COC(=O)C(C)(C)C [Clocortolone pivalate],> 50
11,Oc1ccc2c(c1)-c1ccccc1C2 [3-Hydroxyfluorene],> 90
12,"CC1=CC[C@H](CC=O)C1(C)C [[(1R)-2,2,3-Trimethylcyclopent-3-en-1-yl]acetaldehyde]",> 90
13,COc1ccc2cc([C@H](C)CO)ccc2c1 [Naproxol],> 50
14,CCCCOC(=O)C(C)OC(=O)CCC (stereo not drawn) [1-Butoxy-1-oxopropan-2-yl butanoate],> 90
15,CC1=C(CC(=O)O)c2cc(F)ccc2/C1=C\c1ccc([S+](C)[O-])cc1 (stereo not drawn) [Sulindac],> 90
16,CO [Methanol],> 90
17,"CC(=O)C1CCCCC1=O (stereo not drawn) [Cyclohexanone,2-acetyl-]",> 90
18,COc1cc(CNC(=O)CCCC/C=C/C(C)C)ccc1O [Capsaicin],> 90
19,"OCCCO [1,3-Propanediol]",> 200
20,CCOC(=O)C(Br)c1ccccc1 (stereo not drawn) [Ethyl bromophenylacetate],> 90

row,Compound,CC50 at 24 h [µM]
1,c1ccc2c(c1)Nc1ccccc1S2 [Phenothiazine],> 90
2,"COc1cc(-c2ccc(N=C=O)c(OC)c2)ccc1N=C=O [3,3'-Dimethoxybenzidine-4,4'-diisocyanate]",> 50
3,Cc1cc(=O)n(-c2ccccc2)n1C [Phenazone],> 50
4,CC(C)=CCOC(=O)c1ccccc1 [3-Methyl-2-butenyl benzoate],> 90
5,"ClCCOCCOCCCl [1,2-Bis(2-chloroethoxy)ethane]",> 90
6,"O=Cc1ccc(Cl)c(Cl)c1 [3,4-Dichlorobenzaldehyde]",> 90
7,C=CC(=O)OCC [Ethyl acrylate],> 90
8,CC(CCc1ccc2c(c1)OCO2)NN (stereo not drawn) [Safrazine hydrochloride],> 50
9,CC1(C)CON(Cc2ccccc2Cl)C1=O [Clomazone],> 90
10,Sc1ccccc1 [Benzenethiol],> 90
11,CC(C)(C)c1ccc(S)cc1 [4-tert-Butylbenzenethiol],> 90
12,CCCOCC(C)O (stereo not drawn) [1-Propoxy-2-propanol],> 90
13,"O=C(O)c1ccc(O)cc1O [2,4-Dihydroxybenzoic acid]",> 90
14,CN1CC(=O)NC1=N [Creatinine],> 50
15,Cc1ccccc1C(=O)O [2-Methylbenzoic acid],> 90
16,CN(C)CCCSc1ccccc1NC(=O)/C=C/c1ccccc1 [Cinanserin],22.6
17,CCCC(=O)CC [3-Hexanone],> 90
18,O=C(c1ccccc1)c1ccccc1O [2-Hydroxybenzophenone],> 90
19,NC(=O)N[C@@H](CCC(=O)O)C(=O)O [N-Carbamyl-L-glutamic acid],> 50
20,CCCCCCCCCCCCOCCOS(=O)(=O)O [Sodium lauryl polyoxyethylene ether sulfate],41

row,Compound,CC50 at 24 h [µM]
1,"COC(=O)[C@H]1CC[C@H](C(=O)OC)CC1 [Dimethyl trans-cyclohexane-1,4-dicarboxylate]",> 90
2,CCOC(=O)Cn1cccc1-c1nc(-c2ccc(OC)cc2)c(-c2ccc(OC)cc2)s1 [Pamicogrel],> 50
3,O=C(O)c1ccccc1-c1c2ccc(=O)cc-2oc2cc(O)ccc12 [Fluorescein sodium],> 50
4,CN[C@@H]1[C@H](O[C@H]2[C@H](O[C@H]3[C@H](O)[C@@H](O)[C@H](NC(=N)N)[C@@H](O)[C@@H]3NC(=N)N)O[C@@H](C)[C@]2(O)CO)O[C@@H](CO)[C@H](O)[C@H]1O [Dihydrostreptomycin sulfate],> 50
5,"Cc1cc(C)c(N)c(Cl)c1 [2-Chloro-4,6-dimethylaniline]",> 90
6,CCCCCCCCN(C)CCCCCCCC [N-Methyldioctylamine],> 90
7,NC[C@H](O)c1ccc(O)c(O)c1 [Norepinephrine],57.7
8,OCCN1CCNCC1 [1-Piperazineethanol],> 90
9,"CCCC1C(CC)=CC(CC)=CN1c1ccccc1 (stereo not drawn) [3,5-Diethyl-1-phenyl-2-propyl-1,2-dihydropyridine]",> 90
10,CCOC(=O)c1ccccc1O [Ethyl salicylate],> 50
11,C=C[C@@H](C)CCC=C(C)C [(S)-Citronellene],> 90
12,CC(=O)OC(C)(C)C [tert-Butyl acetate],> 90
13,CCN(CC)CC#CCOC(=O)C(O)(c1ccccc1)C1CCCCC1 (stereo not drawn) [Oxybutynin chloride],15.3
14,C=C(C)C(=O)OCC(C)O (stereo not drawn) [2-Hydroxypropyl 2-methylacrylate],> 90
15,"C=CC1CO1 (stereo not drawn) [1,2-Epoxy-3-butene]",> 100
16,CC(=O)Oc1c(C)c(C)c2c(c1C)CC[C@@](C)(CCC[C@H](C)CCC[C@H](C)CCCC(C)C)O2 (racemic) [dl-alpha-Tocopheryl acetate],> 90
17,COc1ccccc1NC(=O)CC(C)=O [N-(2-Methoxyphenyl)-3-oxobutanamide],> 90
18,O=c1oc2c(O)c(O)cc3c(=O)oc4c(O)c(O)cc1c4c23 [Ellagic acid],> 50
19,CCCCOCCOC(=O)c1ccccc1C(=O)OCCOCCCC [Bis(2-butoxyethyl) phthalate],> 90
20,N#CC1(N)CCCCC1 [1-Aminocyclohexanecarbonitrile],> 90

# Same assay, conditions: rat, gh3-tre-luc cells, AC50 (uM) modified / 1000, Tox21_110001=Tox21_110843; viability, 1 nM T3 present, 24 h
row,Compound,CC50 at 24 h [µM]
1,COP(=O)(OC)C(O)C(Cl)(Cl)Cl (stereo not drawn) [Trichlorfon],> 50

# Same assay, conditions: rat, gh3-tre-luc cells, AC50 (uM) modified / 1000, Tox21_110001=Tox21_111349; viability, 1 nM T3 present, 24 h
row,Compound,CC50 at 24 h [µM]
1,COc1cc2c(cc1OC)[C@@]13CCN4CC5=CCO[C@H]6CC(=O)N2[C@H]1[C@H]6[C@H]5C[C@H]43 [Brucine],> 50

# Same assay, conditions: rat, gh3-tre-luc cells, AC50 (uM) modified / 1000, Tox21_110001=Tox21_112669; viability, 1 nM T3 present, 24 h
row,Compound,CC50 at 24 h [µM]
1,CC(C)CCC(=O)O[C@H]1CC[C@H]2[C@@H]3CCC4=CC(=O)CC[C@]4(C)[C@H]3CC[C@]12C [Testosterone isocaproate],35.3

# Same assay, conditions: rat, gh3-tre-luc cells, AC50 (uM) modified / 1000, Tox21_110001=Tox21_112859; viability, 1 nM T3 present, 24 h
row,Compound,CC50 at 24 h [µM]
1,CC(CC(C#N)(c1ccccc1)c1ccccc1)N(C)C (stereo not drawn) [Premethadone],21.6

# Same assay, conditions: rat, gh3-tre-luc cells, AC50 (uM) modified / 1000, Tox21_110001=Tox21_201195; viability, 1 nM T3 present, 24 h
row,Compound,CC50 at 24 h [µM]
1,COc1c(C(C)(C)C)cc([N+](=O)[O-])c(C)c1[N+](=O)[O-] [Musk ambrette],> 90

# Same assay, conditions: rat, gh3-tre-luc cells, AC50 (uM) modified / 1000, Tox21_110001=Tox21_201607; viability, 1 nM T3 present, 24 h
row,Compound,CC50 at 24 h [µM]
1,COP(=O)(OC)C(O)C(Cl)(Cl)Cl (stereo not drawn) [Trichlorfon],> 90

# Same assay, conditions: rat, gh3-tre-luc cells, AC50 (uM) modified / 1000, Tox21_110001=Tox21_202470; viability, 1 nM T3 present, 24 h
row,Compound,CC50 at 24 h [µM]
1,"Clc1cc(Cl)c(-c2cc(Cl)c(Cl)cc2Cl)cc1Cl [2,2',4,4',5,5'-Hexachlorobiphenyl]",> 40

# Same assay, conditions: rat, gh3-tre-luc cells, AC50 (uM) modified / 1000, Tox21_110001=Tox21_302174; viability, 1 nM T3 present, 24 h
row,Compound,CC50 at 24 h [µM]
1,COc1cc2c(cc1OC)[C@@]13CCN4CC5=CCO[C@H]6CC(=O)N2[C@H]1[C@H]6[C@H]5C[C@H]43 [Brucine],> 90

# Same assay, conditions: rat, gh3-tre-luc cells, AC50 (uM) modified / 1000, Tox21_110001=Tox21_400075; viability, 1 nM T3 present, 24 h
row,Compound,CC50 at 24 h [µM]
1,COc1ccc(C(c2ccc(OC)cc2)C(Cl)(Cl)Cl)cc1 [Methoxychlor],76.1
